What all share (type): in vivo
Series [1] relates to Musca domestica (houseflies - adults). Description: insecticidal mortality test, contact, cotton wool/sugar. Conditions: 24 h, read-out: grading of mortality, MD. On the procedure:
(§1) The activity of the Product was determined using a variety of insect pests. The Product was used in the form of liquid preparations containing 500, 250 or 100 parts per million (ppm) by weight of the Product. The preparations were made by dissolving the Product in acetone and diluting the solutions with water containing 0.01% by weight of a wetting agent sold under the trade name "LlSSAPOL" NX until the liquid preparations contained the required concentration of the Product. "Lissapol" is a Registered Trade Mark.
(§2) The test procedure adopted with regard to each pest was basically the same and comprised supporting a number of the pests on a medium which was usually a host plant or a foodstuff on which the pests feed, and treating either or both the pests and the medium with the preparations. The mortality of the pests was then assessed at periods usually varying from one to three days after the treatment.
(§3) The results of the tests are given in Table III for each of the Products, at the rate in parts per million given in the second column as a grading of mortality designated as A, B or C wherein A indicates 80-100% mortality, B indicates 50-79% mortality and C indicates less than 50% mortality.
(§4) In Table 111 the pest organism used is designated by a letter code and the pests species, the support medium or food, and the type and duration of test is given in Table II.

In series [2] the test system is Diabrotica balteata (rootworm larvae). The experiment in a line: insecticidal mortality test, residual, filter paper/maize seed. Particulars: 72 h, read-out: grading of mortality, DB. The procedure:
as §1, §2, §3, §4

The subject of series [3] is Heliothis virescens (tobacco budworm - larvae). The experiment in a line: insecticidal mortality test, residual, cotton leaf. Conditions: 72 h, read-out: grading of mortality, HV. On the procedure:
as §1, §2, §3, §4

Series [4] concerns Tetranychus urticae (spider mites - adult). The experiment in a line: insecticidal mortality test, contact, French bean leaf. Particulars: for mortality at 100 ppm: Tetranychus urticae, 72 h, read-out: grading of mortality, Tua, 100 ppm, 3 days. The procedure:
as §1, §2, §3, §4

The subject of series [5] is Nephotettix cincticeps (green leaf hopper - nymphs). Description: insecticidal mortality test, contact, rice plant. Conditions: 72 h, read-out: grading of mortality, NC. The procedure:
as §1, §2, §3, §4

Series [6] relates to Spodoptera exigua (lesser army worm - larvae). Description: insecticidal mortality test, residual, cotton leaf. Particulars: 72 h, read-out: grading of mortality, SP. The procedure:
as §1, §2, §3, §4

The subject of the next series is Myzus persicae (aphids). The experiment in a line: insecticidal mortality test, contact, Chinese Cabbage leaf. Conditions: 72 h, read-out: grading of mortality, MP. On the procedure: as §1, §2, §3, §4
The subject of series [7] is Blattella germanica (cockroach nymphs). The experiment in a line: insecticidal mortality test, residual, plastic pot. Conditions: 72 h, read-out: grading of mortality, BG. The procedure:
as §1, §2, §3, §4

[8] abbreviates: 100 ppm, contact, rice plant, 3 days.
The mark [9] stands for this setting: 100 ppm, residual, cotton leaf, 3 days.

Structures are written as SMILES. Where two headings read alike, the source gives them in different places.

Consider `CC1(C)[C@H](C(=O)OCc2c(F)c(F)c(CBr)c(F)c2F)[C@@H]1/C=C(\Cl)C(F)(F)F` (relative stereo) [Product I, 4-(Bromomethyl)-2,3,5,6-tetrafluorobenzyl (1RS,cis)-3-(Z-2-chloro-3,3,3-trifluoroprop-1-en-1-yl)-2,2-dimethyl-cyclopropanecarboxylate], for which the mortality at 100 ppm in series [1] was below 50%; in series [2] it was 80 to 100%; in series [3], 50 to 79%; in series [4], below 50%.
In the case of `CC1(C)C(C=C(Cl)C(F)(F)F)C1C(=O)OCc1c(F)c(F)c(COC=O)c(F)c1F` (racemic) [Product VIII, 4-(Formyloxymethyl)-2,3,5,6-tetrafluoromethyl (1RS, cis)-3-(Z-2-chloro-3,3,3-trifluoroprop-1-en-1-yl)-2,2-dimethylcyclopropanecarboxylate], the mortality at 100 ppm in series [5] (setting [8]), in series [1], in series [2], in series [6] and in series [3] (setting [9]) was 80 to 100% each time. Further, the “grading of mortality, Tua” value in series [4] (100 ppm, 3 days, listed as VIII, 4320 min) is listed as “A (A indicates 80-100% mortality)”.
`CC#CCOCc1c(F)c(F)c(COC(=O)[C@@H]2[C@H](/C=C(\Cl)C(F)(F)F)C2(C)C)c(F)c1F` (relative stereo) [Product XIX, 4-[(But-2-yn-1-yl)oxymethyl]-2,3,5,6-tetrafluorobenzyl (1RS,cis)-3-(Z-2-chloro-3,3,3-trifluoroprop-1-en-1-yl)-2,2-dimethylcyclopropanecarboxylate]: the mortality at 100 ppm in series [5] is 80 to 100%; in series [1], 50 to 79%; in series [2] it was 80 to 100%; in series [6], 80 to 100%; in series [3], 80 to 100%; in series [4], 50 to 79%. Further, the mortality at 100 ppm (with Myzus persicae (aphids); in series [7]) was 80 to 100% each time.
With `C#CC(C)OCc1c(F)c(F)c(COC(=O)C2C(C=C(Cl)C(F)(F)F)C2(C)C)c(F)c1F` (stereo not drawn) [Product XVIII, (Rs)-4-[(l-methylprop-2-yn-1-yl)oxymethyl]-2,3,5,6-tetrafluorobenzyl (1RS,cis)-3-(Z-2-chloro-3,3,3-trifluoroprop-1-en-1-yl)-2,2-dimethylcyclopropanecarboxylate], the mortality at 100 ppm is 80 to 100% in series [5] (setting [8]); 80 to 100% in series [1]; 80 to 100% in series [2]; 80 to 100% in series [6]; 80 to 100% in series [3] (setting [9]); below 50% in series [4]. Further, the mortality at 100 ppm (with Myzus persicae (aphids); in series [7]) was 80 to 100% each time.
In the case of `C#CCOCc1c(F)c(F)c(COC(=O)[C@@H]2[C@H](/C=C(\Cl)C(F)(F)F)C2(C)C)c(F)c1F` (relative stereo) [Product XX, 4-[(Prop-2-yn-1-yl)oxymethyl]-2,3,5,6-tetrafluorobenzyl (1RS,cis)-3-(Z-2-chloro-3,3,3-trifluoroprop-1-en-1-yl)-2,2-dimethylcyclopropanecarboxylate], the mortality at 100 ppm in series [5], in series [1], in series [2], in series [6], in series [3] and in series [4] was 80 to 100% in each case. The mortality at 100 ppm (in the series with Myzus persicae (aphids); in series [7]) was 80 to 100% each time.
`COC(=O)OCc1c(F)c(F)c(COC(=O)[C@@H]2[C@H](/C=C(\Cl)C(F)(F)F)C2(C)C)c(F)c1F` (relative stereo) [Product VII, 4-(Methoxycarbonyloxymethyl)-2,3,5,6-tetrafluorobenzyl (1RS,cis)-3-(Z-2-chloro-3,3,3-trifluoroprop-1-en-1-yl)-2,2-dimethylcyclopropanecarboxylate]: the mortality at 100 ppm is 80 to 100% in series [5]; below 50% in series [1]; 80 to 100% in series [2]; 80 to 100% in series [6]; 80 to 100% in series [3]; 80 to 100% in series [4]. Also, the mortality at 100 ppm (in the series with Myzus persicae (aphids); in series [7]) was 80 to 100% in each case.
As to `CC1(C)[C@H](C(=O)OCc2c(F)c(F)c(COC(=O)C(F)(F)F)c(F)c2F)[C@@H]1/C=C(\Cl)C(F)(F)F` (relative stereo) [Product V, 4-(trifluoroacetoxymethyl)-2,3,5,6-tetrafluorobenzyl (1RS,cis)-3-(Z-2-chloro-3,3,3-trifluoroprop-1-en-1-yl)-2,2-dimethylcyclopropanecarboxylate], the mortality at 100 ppm in series [5], in series [1], in series [2], in series [6], in series [3] and in series [4] was 80 to 100% in each case. In addition, the mortality at 100 ppm (in the series with Myzus persicae (aphids); in series [7]) was 80 to 100% each time.
As to `CC1(C)[C@H](C(=O)OCc2c(F)c(F)c(COS(C)(=O)=O)c(F)c2F)[C@@H]1/C=C(\Cl)C(F)(F)F` (relative stereo) [Product IV, 4-(methanesulphonyloxymethyl)-2,3,5,6-tetrafluorobenzyl (1RS,cis)-3-(Z-2-chloro-3,3,3-trifluoroprop-1-en-1-yl)-2,2-dimethylcyclopropanecarboxylate], the mortality at 100 ppm in series [5] was 80 to 100%; in series [1], below 50%; in series [2], below 50%; in series [6], 80 to 100%; in series [3], 80 to 100%; in series [4], 80 to 100%. Further, the mortality at 100 ppm (with Myzus persicae (aphids); in series [7]) was 80 to 100% in each case.

One may read the mortality as the percentage killed.

These data come from patent EP0302626A2, “Insecticidal compounds” (IMPERIAL CHEMICAL INDUSTRIES PLC, priority 1987, dated 1989).
